From PMC8416343, “A Facile Procedure for One-Pot Stable Conjugation of Two Proglucagon Cysteine-Containing Peptide Analogs” (Frontiers in Endocrinology, 2021)

Columns and labels:
human GLP-1R = biological target: T1, human GLP-1R (Homo sapiens, UniProt P43220); assay: GLP-1 receptor activation, cAMP response element-luciferase reporter in BHK cells; type: cell-based; conditions: for Statistical significance of EC50 difference at human GLP-1 receptor: between human GLP-1, peptide 4 and peptide 5, Student's unpaired t-test, n=6; for EC50: stably transfected BHK cells over-expressing human GLP-1R, CRE-luciferase, 3 h at 37°C, assay buffer with 1% ovalbumin, 12-point 3.5-fold dilution, n=6, kind of +/- not stated
T1 construct: expressed in transfected cells; host or cells: BHK cells (stably transfected, with CRE-firefly luciferase reporter)
T1 sequence (P43220 24-463): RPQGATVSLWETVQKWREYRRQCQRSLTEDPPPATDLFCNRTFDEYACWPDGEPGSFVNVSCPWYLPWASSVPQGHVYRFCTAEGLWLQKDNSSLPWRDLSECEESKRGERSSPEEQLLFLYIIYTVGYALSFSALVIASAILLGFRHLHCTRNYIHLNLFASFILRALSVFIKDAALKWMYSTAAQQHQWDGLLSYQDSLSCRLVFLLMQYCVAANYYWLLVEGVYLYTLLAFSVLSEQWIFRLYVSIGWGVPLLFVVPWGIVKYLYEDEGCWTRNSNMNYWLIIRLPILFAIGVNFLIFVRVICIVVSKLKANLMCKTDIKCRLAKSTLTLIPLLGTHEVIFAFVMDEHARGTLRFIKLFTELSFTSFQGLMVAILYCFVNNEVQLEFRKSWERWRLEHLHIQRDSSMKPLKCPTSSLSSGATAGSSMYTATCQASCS
Experimental: (§1) Receptor activation data was collected utilizing stably transfected BHK cells over-expressing either the human GLP-1R or GcgR and firefly luciferase reporter gene linked to the cAMP response element. The cells were maintained in continuous culture in DMEM supplemented with 10% HI FBS, 300 ug/mL hygromycin, and 500 ug/mL G418 at 37°C with 5% CO2. Cells were plated in the supplemented DMEM at 5,000 cells per well in 96 well poly-D-Lysine coated Corning BioCoat plates and incubated overnight at 37°C with 5% CO2. After the overnight incubation, the media was removed from the cell plates, washed once with DPBS, and 50uL of the assay buffer (DMEM without phenol red, 10 mM Hepes, 1x Glutamax, 1% ovalbumin, and 0.1% Pluronic F-68) was added to the plate. In a separate 96 well plate, the test compounds were serially diluted by 3.5-fold across the row of the plate to create a 12-point dilution curve. […] After the incubation, the assay plates were washed once in DPBS. Following the wash, 100 uL of DPBS was added to each well of the plates followed by 100 uL of the steadylite plus reagent (PerkinElmer). The assay plates were covered to protect from light, incubated at room temperature with shaking at 250 rpm for 30 minutes and read using a microtiter plate reader. The data was plotted using GraphPad Prism 9.0.1 with the nonlinear regression log(agonist) vs. response analysis to obtain the EC50 for each compound. Additionally, GraphPad Prism was used to complete the statistical analysis of the EC50 values with n=6 was using the Student’s unpaired t-test analysis.

[1] = Hydrolysis of thiosuccinimide / chemical stability of linker and conjugates, LC-MS; conditions: for Time to complete hydrolysis of thiosuccinimide: pH 9.6, carbonate-diluted reaction mixture, LC-MS
[2] = system: human GLP-1 and glucagon receptors; assay: Glucagon and GLP-1 receptor activation, both receptors together (summary statements); type: cell-based; conditions: heterodimers of glucagon and GLP-1 analogs; conclusion
Experimental: as §1, with “The data was plotted using GraphPad Prism 9.0.1 with the nonlinear regression log(agonist) vs. response analysis to obtain the EC50 for each compound. Additionally, GraphPad Prism was used to complete the statistical analysis of the EC50 values with n=6 was using the Student’s unpaired t-test analysis.” left out

human GcgR = biological target: T2, human GcgR (Homo sapiens, UniProt P47871); assay: Glucagon receptor activation, cAMP response element-luciferase reporter in BHK cells; type: cell-based; conditions: for Statistical significance of EC50 difference at human glucagon receptor: between peptide 4 and peptide 5, Student's unpaired t-test, n=6; for EC50: stably transfected BHK cells over-expressing human GcgR, CRE-luciferase, 3 h at 37°C, assay buffer with 1% ovalbumin, 12-point 3.5-fold dilution, n=6, kind of +/- not stated
T2 construct: expressed in transfected cells; host or cells: BHK cells (stably transfected, with CRE-firefly luciferase reporter)
T2 sequence (P47871 26-477): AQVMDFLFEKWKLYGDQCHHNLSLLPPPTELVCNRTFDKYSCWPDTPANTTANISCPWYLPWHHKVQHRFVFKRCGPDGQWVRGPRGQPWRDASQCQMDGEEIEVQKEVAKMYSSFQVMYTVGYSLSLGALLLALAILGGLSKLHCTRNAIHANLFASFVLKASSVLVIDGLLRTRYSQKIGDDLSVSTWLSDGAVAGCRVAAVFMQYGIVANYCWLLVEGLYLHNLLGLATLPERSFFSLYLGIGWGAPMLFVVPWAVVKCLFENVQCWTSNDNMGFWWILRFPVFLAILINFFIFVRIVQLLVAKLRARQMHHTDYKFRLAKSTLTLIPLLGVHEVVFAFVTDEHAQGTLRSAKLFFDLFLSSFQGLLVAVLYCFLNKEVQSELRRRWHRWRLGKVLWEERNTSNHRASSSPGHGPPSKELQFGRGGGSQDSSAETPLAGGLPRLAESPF
Experimental: as §1

[3] = pH 9.6

Structure (SMILES)	Statistical significance of EC50 difference at human GLP-1 receptor (human GLP-1R)	Potency in stimulating cAMP at GLP-1 receptors, in words (human GLP-1R; compared with native GLP-1, BHK cells, human GLP-1R)	EC50 (human GLP-1R) [nM]	Thiosuccinimide hydrolysis at pH 8.3 ([1]; pH 8.3, prolonged alkylation time)	Time to complete hydrolysis of thiosuccinimide ([1]; 37°C) [h]	Time to complete hydrolysis of thiosuccinimide ([1]; room temperature)	GLP-1 receptor activity relative to glucagon [2]	Potency at human GCG receptor, in words (human GcgR; BHK cells, human GcgR, reduced versus native human glucagon, comparable between peptides 4 and 5)	Statistical significance of EC50 difference at human glucagon receptor (human GcgR)	EC50 (human GcgR) [nM]	Stability of linker ([1]; pH range of 6.0-8.3, compared with the self-hydrolysable maleimido linker)	Degradation of the conjugate during hydrolysis [3]
CC[C@H](C)[C@H](NC(=O)[C@H](Cc1ccccc1)NC(=O)[C@H](CCC(=O)O)NC(=O)[C@H](CCCCN)NC(=O)[C@H](C)NC(=O)[C@H](C)NC(=O)[C@H](CCC(N)=O)NC(=O)[C@H](CCC(=O)O)NC(=O)[C@H](CCC(=O)O)NC(=O)[C@H](CC(C)C)NC(=O)[C@H](Cc1ccc(O)cc1)NC(=O)[C@H](CO)NC(=O)[C@H](CO)NC(=O)[C@@H](NC(=O)[C@H](CC(=O)O)NC(=O)[C@H](CO)NC(=O)[C@@H](NC(=O)[C@H](Cc1ccccc1)NC(=O)[C@@H](NC(=O)CNC(=O)[C@H](CCC(=O)O)NC(=O)C(C)(C)NC(=O)[C@@H](N)Cc1c[nH]cn1)[C@@H](C)O)[C@@H](C)O)C(C)C)C(=O)N[C@@H](C)C(=O)N[C@@H](Cc1c[nH]c2ccccc12)C(=O)N[C@@H](CC(C)C)C(=O)N[C@H](C(=O)N[C@@H](CCCCN)C(=O)NCC(=O)NCC(=O)N1CCC[C@H]1C(=O)N[C@@H](CO)C(=O)N[C@@H](CO)C(=O)NCC(=O)N[C@@H](C)C(=O)N1CCC[C@H]1C(=O)N1CCC[C@H]1C(=O)N1CCC[C@H]1C(=O)N[C@@H](CO)C(=O)N[C@@H](CSCC(=O)NCCN1C(=O)CC(SC[C@H](NC(=O)[C@H](CO)NC(=O)[C@@H]2CCCN2C(=O)[C@@H]2CCCN2C(=O)[C@@H]2CCCN2C(=O)[C@H](C)NC(=O)CNC(=O)[C@H](CO)NC(=O)[C@H](CO)NC(=O)[C@@H]2CCCN2C(=O)CNC(=O)CNC(=O)[C@H](CC(N)=O)NC(=O)[C@H](CCSC)NC(=O)[C@H](CC(C)C)NC(=O)[C@H](Cc2c[nH]c3ccccc23)NC(=O)[C@H](CCC(N)=O)NC(=O)[C@@H](NC(=O)[C@H](Cc2ccccc2)NC(=O)[C@H](CC(=O)O)NC(=O)[C@H](CCC(N)=O)NC(=O)[C@H](C)NC(=O)[C@H](CCCNC(=N)N)NC(=O)[C@H](CCCNC(=N)N)NC(=O)[C@H](CO)NC(=O)[C@H](CC(=O)O)NC(=O)[C@H](CC(C)C)NC(=O)[C@H](Cc2ccc(O)cc2)NC(=O)[C@H](CCCCN)NC(=O)[C@H](CO)NC(=O)[C@H](Cc2ccc(O)cc2)NC(=O)[C@H](CC(=O)O)NC(=O)[C@H](CO)NC(=O)[C@@H](NC(=O)[C@H](Cc2ccccc2)NC(=O)[C@@H](NC(=O)CNC(=O)[C@H](CCC(N)=O)NC(=O)[C@H](CO)NC(=O)[C@@H](N)Cc2c[nH]cn2)[C@@H](C)O)[C@@H](C)O)C(C)C)C(N)=O)C1=O)C(N)=O)C(C)C (stereo partly shown) [Peptide 4]	no statistical significance	comparable potency to native GLP-1	0.00468 ± 0.00153	did not result in sufficient thiosuccinimide hydrolysis	≤ 1	approximately 12 hours	much enhanced GLP-1 receptor activity relative to glucagon	reduced but comparable potency	no statistical significance	0.607 ± 0.428		
O=C(CI)NCCN1C(=O)C=CC1=O [Linker 1, N-(2-(2,5-dioxo-2,5-dihydro-1H-pyrrol-1-yl)ethyl)-2-iodoacetamide]											enhanced stability	
CC[C@H](C)[C@H](NC(=O)[C@H](Cc1ccccc1)NC(=O)[C@H](CCC(=O)O)NC(=O)[C@H](CCCCN)NC(=O)[C@H](C)NC(=O)[C@H](C)NC(=O)[C@H](CCC(N)=O)NC(=O)[C@H](CCC(=O)O)NC(=O)[C@H](CCC(=O)O)NC(=O)[C@H](CC(C)C)NC(=O)[C@H](Cc1ccc(O)cc1)NC(=O)[C@H](CO)NC(=O)[C@H](CO)NC(=O)[C@@H](NC(=O)[C@H](CC(=O)O)NC(=O)[C@H](CO)NC(=O)[C@@H](NC(=O)[C@H](Cc1ccccc1)NC(=O)[C@@H](NC(=O)CNC(=O)[C@H](CCC(=O)O)NC(=O)C(C)(C)NC(=O)[C@@H](N)Cc1c[nH]cn1)[C@@H](C)O)[C@@H](C)O)C(C)C)C(=O)N[C@@H](C)C(=O)N[C@@H](Cc1c[nH]c2ccccc12)C(=O)N[C@@H](CC(C)C)C(=O)N[C@H](C(=O)N[C@@H](CCCCN)C(=O)NCC(=O)NCC(=O)N1CCC[C@H]1C(=O)N[C@@H](CO)C(=O)N[C@@H](CO)C(=O)NCC(=O)N[C@@H](C)C(=O)N1CCC[C@H]1C(=O)N1CCC[C@H]1C(=O)N1CCC[C@H]1C(=O)N[C@@H](CO)C(=O)N[C@@H](CSCC(=O)NCCNC(=O)C(CC(=O)O)SC[C@H](NC(=O)[C@H](CO)NC(=O)[C@@H]1CCCN1C(=O)[C@@H]1CCCN1C(=O)[C@@H]1CCCN1C(=O)[C@H](C)NC(=O)CNC(=O)[C@H](CO)NC(=O)[C@H](CO)NC(=O)[C@@H]1CCCN1C(=O)CNC(=O)CNC(=O)[C@H](CC(N)=O)NC(=O)[C@H](CCSC)NC(=O)[C@H](CC(C)C)NC(=O)[C@H](Cc1c[nH]c2ccccc12)NC(=O)[C@H](CCC(N)=O)NC(=O)[C@@H](NC(=O)[C@H](Cc1ccccc1)NC(=O)[C@H](CC(=O)O)NC(=O)[C@H](CCC(N)=O)NC(=O)[C@H](C)NC(=O)[C@H](CCCNC(=N)N)NC(=O)[C@H](CCCNC(=N)N)NC(=O)[C@H](CO)NC(=O)[C@H](CC(=O)O)NC(=O)[C@H](CC(C)C)NC(=O)[C@H](Cc1ccc(O)cc1)NC(=O)[C@H](CCCCN)NC(=O)[C@H](CO)NC(=O)[C@H](Cc1ccc(O)cc1)NC(=O)[C@H](CC(=O)O)NC(=O)[C@H](CO)NC(=O)[C@@H](NC(=O)[C@H](Cc1ccccc1)NC(=O)[C@@H](NC(=O)CNC(=O)[C@H](CCC(N)=O)NC(=O)[C@H](CO)NC(=O)[C@@H](N)Cc1c[nH]cn1)[C@@H](C)O)[C@@H](C)O)C(C)C)C(N)=O)C(N)=O)C(C)C (stereo partly shown) [Peptide 5]	no statistical significance		0.00485 ± 0.00429						no statistical significance	0.323 ± 0.187		without detectable degradation
